The values that follow come from patent US9051342B2 (priority 2004, dated 2015).

Molecule `O=C(O)c1cccc(-n2cc(-c3ccc4ccccc4n3)cn2)c1` [Compound 123, 3-(4-Quinolin-2-yl-pyrazol-1-yl)-benzoic add] had a melting point of 250 to 252 °C.
Under `O=C(O)c1cccc(-c2ccn(-c3ccc(OC(F)F)cc3)n2)c1` [Compound 124, 3-[1-(4-Difluoromethoxy-phenyl)-1H-pyrazol-3-yl]-benzoic acid] stands 182 to 183 °C; under `CCc1ccc(-n2ccc(-c3cccc(C(=O)O)c3)c2)cc1` [Compound 125, 3-[1-(4-Ethyl-phenyl)-1H-pyrrol-3-yl]-benzoic acid], 190 to 192 °C.
Under `O=C(O)c1ccc(-c2ccn(-c3ccc(F)c(F)c3)c2)cc1` [Compound 127, 4-[1-(3,4-Difluoro-phenyl)-1H-pyrrol-3-yl]-benzoic acid] stands 231 to 233 °C.
`O=C(O)c1ccc(-c2ccn(-c3cccc(C(F)(F)F)c3)c2)cc1` [Compound 128, 4-[1-(3-Trifluoromethyl-phenyl)-1H-pyrrol-3-yl]-benzoic acid] registered a melting point of 209 to 211 °C.
Under `CCc1ccc(-n2ccc(-c3ccc(C(=O)O)cc3)c2)cc1` [Compound 129, 4-[1-(4-Ethyl-phenyl)-1H-pyrrol-3-yl]-benzoic acid] stands 278 to 280 °C.
Turning to `O=C(O)c1ccc(-c2ccn(-c3ccccc3)c2)cc1` [Compound 130, 4-(1-Phenyl-1H-pyrrol-3-yl)-benzoic acid], the melting point is 239 to 241 °C.
Under `O=C(O)c1ccc(-c2ccn(-c3ccc(OC(F)(F)F)cc3)c2)cc1` [Compound 131, 4-[1-(4-Trifluoromethoxy-phenyl)-1H-pyrrol-3-yl]-benzoic acid] stands 318 to 320 °C; under `O=C(O)c1cccc(-c2cnn(-c3ccc(OC(F)(F)F)cc3)c2)c1` [Compound 133, 3-[1-(4-Trifluoromethoxy-phenyl)-1H-pyrazol-4-yl]-benzoic acid], 213 to 215 °C.
Under `O=C(O)c1ccc(-c2cnn(-c3ccc(OC(F)(F)F)cc3)c2)cc1` [Compound 134, 4-[1-(4-Trifluoromethoxy-phenyl)-1H-pyrazol-4-yl]-benzoic acid] stands 246 to 248 °C.
For the molecule `O=C(O)c1cccc(-n2ncc3c2CCc2ccccc2-3)c1` [Compound 135, 3-(4,5-Dihydro-benzo[e]indazol-3-yl)-benzoic acid], the melting point is 273 to 275 °C.
Under `O=C(O)c1cccc(-n2ncc3c2Cc2ccccc2-3)c1` [Compound 136, 3-(8H-Indeno[2,1-c]pyrazol-1-yl)-benzoic acid] stands 241 to 243 °C; under `O=C(O)c1cccc(-n2cc3c(n2)-c2ccccc2CC3)c1` [Compound 137, 3-(4,5-Dihydro-benzo[g]indazol-2-yl)-benzoic acid], 191 to 192 °C; under `O=C(O)c1cccc(-n2cc3c(n2)-c2ccccc2C3)c1` [Compound 138, 3-(4H-Indeno[1,2-c]pyrazol-2-yl)-benzoic acid], 249 to 250 °C.
The value for `COc1ccc2c(c1)Cc1cn(-c3cccc(C(=O)O)c3)nc1-2` [Compound 139, 3-(6-Methoxy-4H-indeno[1,2-c]pyrazol-2-yl)-benzoic acid] was 272 to 273 °C; that for `COc1ccc2c(c1)-c1nn(-c3cccc(C(=O)O)c3)cc1C2` [Compound 140, 3-(7-Methoxy-4H-indeno[1,2-c]pyrazol-2-yl)-benzoic acid] was 225 to 227 °C.
Under `O=C(O)c1cccc(-n2cc3c(n2)CCc2ccccc2-3)c1` [Compound 141, 3-(4,5-Dihydro-benzo[e]indazol-2-yl)-benzoic acid] stands 233 to 234 °C; under `COc1ccc2c(c1)CCc1cn(-c3cccc(C(=O)O)c3)nc1-2` [Compound 142, 3-(7-Methoxy-4,5-dihydro-benzo[g]indazol-2-yl)-benzoic acid], 217 to 218 °C.
As to `COc1ccc2c(c1)-c1nn(-c3cccc(C(=O)O)c3)cc1CC2` [Compound 143, 3-(8-Methoxy-4,5-dihydro-benzo[g]indazol-2-yl)-benzoic acid], the melting point was in the range of 192 to 193 °C.
Under `O=C(O)c1cccc(-n2cc3c(n2)-c2ccccc2OC3)c1` [Compound 144, 3-(4H-Chromeno[4,3-c]pyrazol-2-yl)-benzoic acid] stands 227 to 228 °C; under `COc1ccc2c(c1)-c1nn(-c3ccc(C(=O)O)cc3)cc1CC2` [Compound 145, 4-(8-Methoxy-4,5-dihydro-benzo[g]indazol-2-yl)-benzoic acid], 290 to 292 °C; under `O=C(O)c1cccc(-n2cc3c(n2)Cc2ccccc2-3)c1` [Compound 146, 3-(8H-Indeno[2,1-c]pyrazol-2-yl)-benzoic acid], 246 to 248 °C.
The value for `COc1cccc2c1CCc1cn(-c3cccc(C(=O)O)c3)nc1-2` [Compound 147, 3-(6-Methoxy-4,5-dihydro-benzo[g]indazol-2-yl)-benzoic acid] was 232 to 233 °C.
Consider `COc1cccc2c1CCc1cn(-c3ccc(C(=O)O)cc3)nc1-2` [Compound 148, 4-(6-Methoxy-4,5-dihydro-benzo[g]indazol-2-yl)-benzoic acid], for which the melting point was in the range of 288 to 290 °C.
The value for `COc1ccc2c(c1)-c1nn(-c3ccc(C(=O)O)cc3)cc1C2` [Compound 149, 4-(7-Methoxy-4H-indeno[1,2-c]pyrazol-2-yl)-benzoic acid] was 304 to 306 °C; that for `O=C(O)c1ccc(-c2ccn(-c3ccc4c(c3)OCCO4)c2)cc1` [Compound 150, 4-[1-(2,3-Dihydro-benzo[1,4]dioxin-6-yl)-1H-pyrrol-3-yl]-benzoic acid] was 273 to 276 °C; that for `O=C(O)c1ccc(-c2ccn(-c3ccccc3F)c2)cc1` [Compound 151, 4-[1-(2-Fluoro-phenyl)-1H-pyrrol-3-yl]-benzoic acid] was 202 to 204 °C.
The value for `O=C(O)c1ccc(-c2ccn(-c3cccc(F)c3)c2)cc1` [Compound 152, 4-[1-(3-Fluoro-phenyl)-1H-pyrrol-3-yl]-benzoic acid] was 211 to 213 °C.
`O=C(O)c1ccc(-c2ccn(-c3cc(F)cc(F)c3)c2)cc1` [Compound 153, 4-[1-(3,5-Difluoro-phenyl)-1H-pyrrol-3-yl]-benzoic acid] displayed a melting point of 243 to 245 °C.
Molecule `O=C(O)c1cccc(-c2ccn(-c3ccc(Cl)cc3)c2)c1` [Compound 155, 3-[1-(4-Chloro-phenyl)-1H-pyrrol-3-yl]-benzoic acid] gave a melting point of 211 to 213 °C.
With `Cc1ccc(-n2ccc(-c3cccc(C(=O)O)c3)c2)cc1` [Compound 156, 3-(1-p-Tolyl-1H-pyrrol-3-yl)-benzoic acid], the melting point is 178 to 181 °C.
On to `O=C(O)c1ccc(-n2cc3c(n2)-c2ccccc2CC3)cc1` [Compound 161, 4-(4,5-Dihydro-benzo[g]indazol-2-yl)-benzoic acid], for which the melting point is 288 to 290 °C.
The molecule `O=C(O)c1ccc(-n2cc3c(n2)-c2ccccc2OC3)cc1` [Compound 162] yielded a melting point of 308 to 310 °C.
`COc1ccc2c(c1)CCc1cn(-c3ccc(C(=O)O)cc3)nc1-2` [Compound 163, 4-(7-Methoxy-4,5-dihydro-benzo[g]indazol-2-yl)-benzoic acid] showed a melting point of 279 to 280 °C.

As a reminder, the melting point is the temperature of the solid-liquid transition.
